# PubChem BioAssay AID2060349 (Molecular Pharmacology Branch, DTP, NCI, 2025)
# Where “and” joins values, the source holds several entries; their conditions need not be identical. Identical values can stand only once.
# Test system: 762968-020-R-J2-PDC spheroids viability
# Assay: Anticancer human tumor 762968-020-R-J2-PDC patient-derived colon carcinoma cell line growth inhibition [TAK]
# Details: spheroids with HUVEC and MSC; for viability, T/C: stronger effect = lower value
# Source text: Combinatorial screen of targeted agents with TAK-243 and ipatasertib in multi-cell type tumor spheroids
# A high-throughput screen of multi-cell type tumor spheroids was designed to identify active combinations of targeted small molecules and TAK-243 or ipatasertib. Complex spheroids include a stromal component modeled by human endothelial cells (HUVEC) and fibroblasts modeled by human mesenchymal stem cells (MSCs). The concentration ranges selected for each drug and investigational agent were based upon clinically achievable concentrations if the clinical Cmax of the agent was known.
# Compounds. The drugs and investigational agents: TAK-243 (785004), ipatasertib (767898), everolimus (733504), selumetinib (741078), bortezomib (756655), trametinib (758246), ixazomib (758254), vemurafenib (761431), dabrafenib (764134), sapanisertib (764658), alpelisib (765974), and copanlisib (816437), were obtained from the National Cancer Institute (NCI) Developmental Therapeutics Program Chemical Repository. The FDA-approved anticancer drug set is available from the NCI Developmental Therapeutics Program. […] The stock solutions were prepared in dimethyl sulfoxide (DMSO, Sigma-Aldrich, St. Louis, MO, cat. D2650) at 800-fold the tested concentration and stored at -70 degrees C prior to their use. All drugs and investigational agents were tested over a range starting from a high concentration at or near the clinical Cmax and decreasing in half-log increments. If the clinical Cmax for an agent had not been determined, the highest concentration tested was 10 microM.
# NCI60 Cell Culture. NCI60 cell lines were obtained from the NCI Developmental Therapeutics Program Tumor Repository. For each lot of cells, the Repository performed Applied Biosystems AmpFLSTR Identifiler testing with PCR amplification to confirm consistency with the published Identifier STR profile for each cell line. Cells were kept in continuous culture for no more than 20 passages. The optimal seeding densities for each of the cell lines at each time point assessed were determined prior to performing the concentration response studies. Briefly, the NCI60 human tumor lines were grown as monolayers in RPMI 1640 medium supplemented with 10% FBS and 2 mmol/L L-glutamine.
# An additional 2 lines were from the NCI60 cell line panel including melanomas, MALME-3M and SK-MEL-2. Pooled donor human umbilical vein endothelial cells (HUVEC, Lonza, cat. CC-2519) and human mesenchymal stem cells (hMSC, Lonza, cat. PT-2501) were purchased from Lonza (Walkersville, MD).
# PDMR cell lines were grown in complete medium (DC medium): Dulbecco's modified Eagle's medium (DMEM)/F12 supplemented with 5% fetal bovine serum (FBS), 2 mM L-glutamine, 100 U/mL penicillin and 100 µg/ml streptomycin, 0.4 µg/ml hydrocortisone, 10 ng/ml epidermal growth factor (EGF) recombinant human protein, 24 µg/mL adenine, and 0.1 mg/mL primocin. During culture from frozen stock vials, PDMR cells were cultured in the same medium containing 10 µM Y-27632 (see Table 3). The PDCs were cultured in complete DMEM/F12 media without 10 microM Y-27632 dihydrochloride for at least two passages prior to the screen. The pooled donor HUVEC and hMSC were cultured in endothelial cell growth medium 2 (PromoCell, Heidelberg, Germany, cat. C-22011) and mesenchymal stem cell growth medium 2 (PromoCell, cat. C-28009), respectively. For all experiments, HUVEC and hMSC were used at passages </=5.
# For the pre-screen, cell seeding densities were determined from a titration spanning the range from 5,000 to 313 cells per well. The mct-spheroids including 60% malignant cells, 25% HUVEC and 15% MSC dispensed as a mixture into U-bottom Ultra-Low Attachment 384-well plates (Corning, NY)
# High-throughput Drug Combination Screening.
# Prior to their inoculation into 384-well plates, malignant cells, HUVEC, and hMSC were removed from T flasks using TrypLE express (Thermo Fisher Scientific, cat. 12605036) and harvested by centrifugation for 5 min at 233 x g. […]
# [1] = curve of first compound, second compound 0.3 µM
# [2] = curve of first compound, second compound 0.949 µM
# [3] = curve of first compound, second compound 3 µM
# [4] = curve of first compound, second compound 9.49 µM
# [5] = curve of first compound, second compound 30 µM
# [6] = second compound 0.3 µM, first compound 0.316 µM
# [7] = second compound 0.3 µM, first compound 1 µM
# [8] = second compound 0.3 µM, first compound 3.16 µM
# [9] = second compound 0.3 µM, first compound 10 µM
# [10] = second compound 0.949 µM, first compound 0.316 µM
# [11] = second compound 0.949 µM, first compound 1 µM
# [12] = second compound 0.949 µM, first compound 3.16 µM
# [13] = second compound 0.949 µM, first compound 10 µM
# [14] = second compound 3 µM, first compound 0.316 µM
# [15] = second compound 3 µM, first compound 1 µM
# [16] = second compound 3 µM, first compound 3.16 µM
# [17] = second compound 3 µM, first compound 10 µM
# [18] = second compound 9.49 µM, first compound 0.316 µM
# [19] = second compound 9.49 µM, first compound 1 µM
# [20] = second compound 9.49 µM, first compound 3.16 µM
# [21] = second compound 9.49 µM, first compound 10 µM
# [22] = second compound 30 µM, first compound 0.316 µM
# [23] = second compound 30 µM, first compound 1 µM
# [24] = second compound 30 µM, first compound 3.16 µM
# [25] = second compound 30 µM, first compound 10 µM
# 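Also: spheroids exposed to drug for 7 days before readout.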
# 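For viability, T/C in this document: 100% = DMSO vehicle control wells.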
smiles,measurement,setting,value
CCCS(=O)(=O)Nc1ccc(F)c(C(=O)c2c[nH]c3ncc(-c4ccc(Cl)cc4)cc23)c1F + CC(C)NCC(C(=O)N1CCN(c2ncnc3c2C(C)CC3O)CC1)c1ccc(Cl)cc1,IC50,[1],> 100 µM
same,IC50,[2],23.6 µM
same,IC50,[3],> 100 µM
same,IC50,[4],> 100 µM
same,IC50,[5],17.9 µM
same,"viability, T/C",[6],94.5%
same,"viability, T/C",[7],95.2%
same,"viability, T/C",[8],94.4%
same,"viability, T/C",[9],72.3%
same,"viability, T/C","second compound 0.3 µM, first compound 31.6 µM",13.6%
same,"viability, T/C","second compound 0.3 µM, first compound 100 µM",97.5%
same,"viability, T/C",[10],89.9%
same,"viability, T/C",[11],93.2%
same,"viability, T/C",[12],94.6%
same,"viability, T/C",[13],57.5%
same,"viability, T/C","second compound 0.949 µM, first compound 31.6 µM",1.16%
same,"viability, T/C","second compound 0.949 µM, first compound 100 µM",93.7%
same,"viability, T/C",[14],97.6%
same,"viability, T/C",[15],93.3%
same,"viability, T/C",[16],101%
same,"viability, T/C",[17],71.3%
same,"viability, T/C","second compound 3 µM, first compound 31.6 µM",0.49%
same,"viability, T/C","second compound 3 µM, first compound 100 µM",97.8%
same,"viability, T/C",[18],91.9%
same,"viability, T/C",[19],94.1%
same,"viability, T/C",[20],89.1%
same,"viability, T/C",[21],70.2%
same,"viability, T/C","second compound 9.49 µM, first compound 31.6 µM",18.5%
same,"viability, T/C","second compound 9.49 µM, first compound 100 µM",105%
same,"viability, T/C",[22],77.2%
same,"viability, T/C",[23],90.9%
same,"viability, T/C",[24],87.4%
same,"viability, T/C",[25],53.6%
same,"viability, T/C","second compound 30 µM, first compound 31.6 µM",2.13%
same,"viability, T/C","second compound 30 µM, first compound 100 µM",90.7%
COC1CC2CCC(C)C(O)(O2)C(=O)C(=O)N2CCCCC2C(=O)OC(C(C)CC2CCC(OCCO)C(OC)C2)CC(=O)C(C)C=C(C)C(O)C(OC)C(=O)C(C)CC(C)C=CC=CC=C1C (centres undefined),"viability, T/C",compound 0.000316 µM,103% and 106%
same,"viability, T/C",compound 0.001 µM,99.4% and 100%
same,"viability, T/C",compound 0.00316 µM,104% and 96.8%
same,"viability, T/C",compound 0.01 µM,105% and 107%
same,"viability, T/C",compound 0.0316 µM,101% and 107%
same,"viability, T/C",compound 0.1 µM,99.1% and 95.3%
same,IC50,curve of compound,> 0.1 µM
CC(C)CC(NC(=O)C(Cc1ccccc1)NC(=O)c1cnccn1)B(O)O (centres undefined),"viability, T/C",compound 31.6 pM,94.6% and 101%
same,"viability, T/C",compound 0.0001 µM,102% and 101%
same,"viability, T/C",compound 0.000316 µM,108% and 96.2%
same,"viability, T/C",compound 0.001 µM,103% and 99.8%
same,"viability, T/C",compound 0.00316 µM,109% and 99%
same,"viability, T/C",compound 0.01 µM,90.6% and 93.7%
same,IC50,curve of compound,> 0.01 µM
Cc1nc(NC(=O)N2CCCC2C(N)=O)sc1-c1ccnc(C(C)(C)C(F)(F)F)c1 (centres undefined) + CC(C)NCC(C(=O)N1CCN(c2ncnc3c2C(C)CC3O)CC1)c1ccc(Cl)cc1,IC50,[1],> 10 µM
same,IC50,[2],> 10 µM
same,IC50,[3],> 10 µM
same,IC50,[4],> 10 µM
same,IC50,[5],> 10 µM
same,"viability, T/C","second compound 0.3 µM, first compound 0.0316 µM",119%
same,"viability, T/C","second compound 0.3 µM, first compound 0.1 µM",109%
same,"viability, T/C",[6],99.4%
same,"viability, T/C",[7],92.5%
same,"viability, T/C",[8],98.8%
same,"viability, T/C",[9],89.7%
same,"viability, T/C","second compound 0.949 µM, first compound 0.0316 µM",113%
same,"viability, T/C","second compound 0.949 µM, first compound 0.1 µM",111%
same,"viability, T/C",[10],97.2%
same,"viability, T/C",[11],102%
same,"viability, T/C",[12],99.5%
same,"viability, T/C",[13],94.6%
same,"viability, T/C","second compound 3 µM, first compound 0.0316 µM",108%
same,"viability, T/C","second compound 3 µM, first compound 0.1 µM",109%
same,"viability, T/C",[14],108%
same,"viability, T/C",[15],102%
same,"viability, T/C",[16],94.4%
same,"viability, T/C",[17],99.7%
same,"viability, T/C","second compound 9.49 µM, first compound 0.0316 µM",110%
same,"viability, T/C","second compound 9.49 µM, first compound 0.1 µM",108%
same,"viability, T/C",[18],105%
same,"viability, T/C",[19],106%
same,"viability, T/C",[20],94%
same,"viability, T/C",[21],89.6%
same,"viability, T/C","second compound 30 µM, first compound 0.0316 µM",78.6%
same,"viability, T/C","second compound 30 µM, first compound 0.1 µM",81.5%
same,"viability, T/C",[22],81.8%
same,"viability, T/C",[23],75.7%
same,"viability, T/C",[24],74.3%
same,"viability, T/C",[25],69.8%
